Target: T1, human glucagon receptor (Homo sapiens, UniProt P47871)
T1 construct: expressed in transfected cells; cell membranes used
Test: Glucagon Receptor Binding Assay
Conditions: 125I-Glucagon binding to membranes of CHO cells expressing cloned human glucagon receptor; value for the more active diastereomer where both were prepared
Protocol: A stable CHO (Chinese hamster ovary) cell line expressing cloned human glucagon receptor was maintained as described (Chiechi, et. al. J Biol Chem 272, 7765-9 (1997); Cascieri, et. al. J Biol Chem 274, 8694-7 (1999)). To determine antagonistic binding affinity of compounds, 0.001-0.003 mg of cell membranes from these cells were pre-incubated with 0.100 mg WGA-coated PVT SPA beads (Amersham) for 20 minutes at room temperature in 25 μL of a buffer containing 50 mM Tris-HCl (pH 7.5), 5 mM MgCl2, 2 mM EDTA, 0.1% BSA and 3% glycerol in Costar 384 well plates with clear bottoms (#3706). Next, 25 μL of ^125I-Glucagon (New England Nuclear, Mass.) (1×10^−14 mol per well) and either 1 μL solutions of test compounds or 0.001 mM unlabeled glucagon or DMSO were added and mixed. After 4-12 hours incubation at room temperature, the radioactivity bound to the cell membranes was determined in a radioactive emission detection counter (Wallac-Microbeta). Data were analyzed using the Data Analyzer software program of Merck & Co., Inc. The IC50 values were calculated using non-linear regression analysis assuming single-site competition.

T1 sequence (P47871 26-477): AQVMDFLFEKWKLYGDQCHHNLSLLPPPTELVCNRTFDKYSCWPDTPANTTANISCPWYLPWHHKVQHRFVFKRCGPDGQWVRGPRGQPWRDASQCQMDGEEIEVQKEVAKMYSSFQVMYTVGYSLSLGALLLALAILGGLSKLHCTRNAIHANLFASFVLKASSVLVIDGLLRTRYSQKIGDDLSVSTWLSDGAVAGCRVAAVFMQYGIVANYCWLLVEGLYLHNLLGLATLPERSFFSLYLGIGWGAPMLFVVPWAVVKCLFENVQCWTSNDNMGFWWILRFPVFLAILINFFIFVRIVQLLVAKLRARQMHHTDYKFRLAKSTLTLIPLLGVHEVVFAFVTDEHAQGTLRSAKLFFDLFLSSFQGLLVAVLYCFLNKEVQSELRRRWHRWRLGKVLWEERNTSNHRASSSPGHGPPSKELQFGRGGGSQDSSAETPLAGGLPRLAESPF

For `CCCC(c1ccc(C(=O)NCCC(=O)O)cc1)C(COc1ccc2cc(OC)ccc2c1)c1ccc(Cl)cc1` (racemic) [Example 86, N-[4-(1-{1-(4-chlorophenyl)-2-[(6-methoxy-2-naphthyl)oxy]ethyl}butyl)benzoyl]-β-alanine], which IC50 is on record?
Its IC50 is 16 nM.

How did the IC50 turn out when `CCC[C@H](c1ccc(C(=O)NCCC(=O)O)cc1)[C@@H](Oc1ccc(Cl)c(Cl)c1)c1ccc(Cl)cc1` [Example 1, N-(4-{(1R)-1-[(R)-(4-chlorophenyl)(3,4-dichlorophenoxy)methyl]butyl}benzoyl)-β-alanine] was run?
The IC50 was 16 nM.

With `CCC[C@H](c1ccc(C(=O)NCCC(=O)O)cc1)[C@@H](Oc1cc(C(C)(C)C)cc(C(C)(C)C)c1)c1ccc(Cl)cc1` [Example 5] as the molecule, how does the IC50 read?
Its IC50 is 11 nM.

`CCC[C@H](c1ccc(C(=O)NCCC(=O)O)cc1)[C@@H](Oc1ccc(C#N)c2ccccc12)c1ccc(Cl)cc1` [Example 9] was tested. Which IC50 did it give?
Its IC50 is 6.2 nM.

Which IC50 does the source give for `CCC[C@H](c1ccc(C(=O)NCCC(=O)O)cc1)[C@@H](Oc1ccc(C(F)(F)F)c(C#N)c1)c1ccc(Cl)cc1` [Example 15] here?
The IC50 was 5.9 nM.

Which IC50 does the source give for `CCC[C@H](c1ccc(C(=O)NCCC(=O)O)cc1)[C@@H](Oc1ccc(C)c(C#N)c1)c1ccc(Cl)cc1` [Example 16] here?
Its IC50 is 16 nM.

Which IC50 does the source give for `CCC[C@H](c1ccc(C(=O)NCCC(=O)O)cc1)[C@@H](Oc1ccc(C#N)c(Cl)c1)c1ccc(Cl)cc1` [Example 18] here?
The IC50 was 25 nM.

How did the IC50 turn out when `CCC[C@H](c1ccc(C(=O)NCCC(=O)O)cc1)[C@@H](Oc1cc(C#N)cc(-c2ccc(C(F)(F)F)cc2)c1)c1ccc(Cl)cc1` [Example 36] was run?
Its IC50 is 6.3 nM.

With `CCC[C@H](c1ccc(C(=O)NCCC(=O)O)cc1)[C@@H](Oc1ccc(-c2cccn2C)cc1)c1ccc(Cl)cc1` [Example 47] as the molecule, how does the IC50 read?
The IC50 was 9.2 nM.

Which IC50 does the source give for `CCC[C@H](c1ccc(C(=O)NCCC(=O)O)cc1)[C@@H](Oc1ccc(-c2ccc(C(F)(F)F)cc2)cc1C#N)c1ccc(Cl)cc1` [Example 59] here?
The IC50 was 0.3 nM.

How did the IC50 turn out when `CCC[C@H](c1ccc(C(=O)NCCC(=O)O)cc1)[C@H](Oc1ccc(C(F)(F)F)cc1)c1ccc(Cl)cc1` [Example 62] was run?
Its IC50 is 7.9 nM.

`CCC[C@H](c1ccc(C(=O)NCCC(=O)O)cc1)[C@H](Oc1ccc(C(F)(F)F)cc1Cl)c1ccc(Cl)cc1` [Example 65] was tested. Which IC50 did it give?
The IC50 was 12 nM.

With `CCC[C@H](c1ccc(C(=O)NCCC(=O)O)cc1)[C@@H](Oc1ccnc2c(C)cc(Cl)cc12)c1ccc(Cl)cc1` [Example 67, N-(4-{(1R)-1-[(R)-[(6-chloro-8-methylquinolin-4-yl)oxy](4-chlorophenyl)methyl]butyl}benzoyl)-β-alanine] as the molecule, how does the IC50 read?
Its IC50 is 6.6 nM.

Which IC50 does the source give for `CCC[C@H](c1ccc(C(=O)NCCC(=O)O)cc1)[C@@H](Oc1ccnc2cc(C)ccc12)c1ccc(Cl)cc1` [Example 68, N-[4-((1R)-1-{(R)-(4-chlorophenyl)[(7-methylquinolin-4-yl)oxy]methyl}butyl)benzoyl]-β-alanine] here?
The IC50 was 7.2 nM.

With `CCC[C@H](c1ccc(C(=O)NCCC(=O)O)cc1)[C@@H](Oc1ccnc2cc(Cl)ccc12)c1ccc(Cl)cc1` [Example 69, N-[4-((1R)-1-{(R)-(4-chlorophenyl)[(7-chloroquinolin-4-yl)oxy]methyl}butyl)benzoyl]-β-alanine] as the molecule, how does the IC50 read?
The IC50 was 4.5 nM.

How did the IC50 turn out when `CCC[C@H](c1ccc(C(=O)NCCC(=O)O)cc1)[C@@H](Oc1cc(C(F)(F)F)nc2ccccc12)c1ccc(Cl)cc1` [Example 70, N-(4-{(1R)-1-[(R)-[(2-trifluoromethylquinolin-4-yl)oxy](4-chlorophenyl)methyl]butyl}benzoyl)-β-alanine] was run?
The IC50 was 2.1 nM.

`CCC[C@H](c1ccc(C(=O)NCCC(=O)O)cc1)[C@@H](Oc1ccnc2cc(C#N)ccc12)c1ccc(Cl)cc1` [Example 71, N-[4-((1R)-1-{(R)-(4-chlorophenyl)[(7-cyanoquinolin-4-yl)oxy]methyl}butyl)benzoyl]-β-alanine] was tested. Which IC50 did it give?
The IC50 was 5.5 nM.

With `CCC[C@H](c1ccc(C(=O)NCCC(=O)O)cc1)[C@@H](OCc1ccc(OC(F)(F)F)cc1)c1ccc(Cl)cc1` [Example 72, N-{4-[(1R)-1-((R)-(4-chlorophenyl){[4-(trifluoromethoxy)benzyl]oxy}methyl)butyl]benzoyl}-β-alanine] as the molecule, how does the IC50 read?
The IC50 was 32 nM.

How did the IC50 turn out when `CCC[C@H](c1ccc(C(=O)NCCC(=O)O)cc1)[C@@H](OCc1ccc2ccccc2c1)c1ccc(Cl)cc1` [Example 73, N-(4-{(1R)-1-[(R)-(4-chlorophenyl)(2-naphthylmethoxy)methyl]butyl}benzoyl)-β-alanine] was run?
The IC50 was 38 nM.

With `CCC[C@H](c1ccc(C(=O)NCCC(=O)O)cc1)[C@@H](OCc1ccc(-c2ccccc2)cc1)c1ccc(Cl)cc1` [Example 74, N-(4-{(1R)-1-[(R)-(biphenyl-4-ylmethoxy)(4-chlorophenyl)methyl]butyl}benzoyl)-β-alanine] as the molecule, how does the IC50 read?
The IC50 was 20 nM.

How did the IC50 turn out when `N#Cc1cc(Cl)cc(O[C@@H](c2ccc(Cl)cc2)[C@H](CCC(F)(F)F)c2ccc(C(=O)NCCC(=O)O)cc2)c1` [Example 75, N-(4-{(1R)-1-[(R)-(3-chloro-5-cyanophenoxy)(4-chlorophenyl)methyl]-4,4,4-trifluorobutyl}benzoyl)-β-alanine] was run?
Its IC50 is 18 nM.

With `CCC[C@H](c1ccc(C(=O)NCCC(=O)O)cc1)[C@@H](Oc1cc(C#N)cc(C(F)(F)F)c1)c1ccc(Cl)cc1` [Example 76, N-[4-((1R)-1-{(R)-(4-chlorophenyl)[3-cyano-5-(trifluoromethyl)phenoxy]methyl}butyl)benzoyl]-β-alanine] as the molecule, how does the IC50 read?
Its IC50 is 4.8 nM.

With `CCC[C@H](c1ccc(C(=O)NCCC(=O)O)cc1)[C@@H](Oc1cc(C#N)cc(C(F)(F)F)c1)c1ccc(OC(F)(F)F)cc1` [Example 77, N-[4-((1R)-1-{(R)-(4-trifluoromethoxyphenyl)[3-cyano-5-(trifluoromethyl)phenoxy]methyl}butyl)benzoyl]-β-alanine] as the molecule, how does the IC50 read?
The IC50 was 2.5 nM.

`CCC[C@H](c1ccc(C(=O)NCCC(=O)O)cc1)[C@@H](Oc1cc(C#N)c(Cl)c(C(F)(F)F)c1)c1ccc(Cl)cc1` [Example 78, N-(4-{(1R)-1-[(R)-[4-chloro-3-cyano-5-(trifluoromethyl)phenoxy](4-chlorophenyl)methyl]butyl}benzoyl)-β-alanine] was tested. Which IC50 did it give?
Its IC50 is 1.4 nM.

How did the IC50 turn out when `CCC[C@H](c1ccc(C(=O)NCCC(=O)O)cc1)[C@@H](Oc1cc(C(F)(F)F)ccc1C#N)c1ccc(Cl)cc1` [Example 79] was run?
The IC50 was 7.6 nM.

For `CCC[C@H](c1ccc(C(=O)NCCC(=O)O)cc1)[C@@H](Oc1ccc(C(F)(F)F)cc1C#N)c1ccc(Cl)cc1` [Example 80], which IC50 is on record?
The IC50 was 3.6 nM.

With `CCC[C@H](c1ccc(C(=O)NCCC(=O)O)cc1)[C@@H](Oc1cc(Cl)c(Cl)c(C#N)c1)c1ccc(Cl)cc1` [Example 85] as the molecule, how does the IC50 read?
The IC50 was 1.1 nM.

Same assay, conditions: comparison of major and minor racemic diastereomers

How did the “more potent glucagon receptor antagonist of the two diastereomers” value turn out when `CCCC(c1ccc(C(=O)NCCC(=O)O)cc1)C(COc1ccc2cc(OC)ccc2c1)c1ccc(Cl)cc1` (stereo not drawn) [86 major diastereomer] was run?
The value was “more potent glucagon receptor antagonist”.
